pKi: −log10 of the molar value.
Assays:
[1] = target: isolated recombinant JAK1 kinase domain (Homo sapiens (Human), UniProt P23458); experiment: JAK1 enzyme assay (Caliper LabChip, Ki); format: biochemical; conditions: isolated recombinant JAK1 kinase domain, 1.5 nM enzyme, ATP 25 μM
[2] = target: isolated recombinant JAK2 kinase domain (Homo sapiens (Human), UniProt O60674); experiment: JAK2 enzyme assay (Caliper LabChip, Ki); format: biochemical; conditions: isolated recombinant JAK2 kinase domain, 0.2 nM enzyme, ATP 25 μM
Chain of isolated recombinant JAK2 kinase domain (O60674 849-1124): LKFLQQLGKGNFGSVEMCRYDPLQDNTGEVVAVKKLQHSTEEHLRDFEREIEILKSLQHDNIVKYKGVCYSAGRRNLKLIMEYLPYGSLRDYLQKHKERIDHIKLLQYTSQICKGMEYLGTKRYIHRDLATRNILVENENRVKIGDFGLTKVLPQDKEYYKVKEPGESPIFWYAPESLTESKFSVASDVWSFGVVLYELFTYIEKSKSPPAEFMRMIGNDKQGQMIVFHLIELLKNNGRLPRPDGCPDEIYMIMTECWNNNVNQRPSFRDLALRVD

Chain of isolated recombinant JAK1 kinase domain (P23458 875-1153): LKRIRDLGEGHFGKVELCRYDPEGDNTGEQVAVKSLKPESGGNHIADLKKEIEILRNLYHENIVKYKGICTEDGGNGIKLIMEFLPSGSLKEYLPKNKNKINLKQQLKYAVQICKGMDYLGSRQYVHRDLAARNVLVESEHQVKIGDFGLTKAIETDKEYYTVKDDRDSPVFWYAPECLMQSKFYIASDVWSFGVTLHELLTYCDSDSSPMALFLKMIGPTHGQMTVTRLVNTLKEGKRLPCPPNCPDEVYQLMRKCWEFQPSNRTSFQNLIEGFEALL

Row | Structure (SMILES) | pKi [1] | pKi [2]
1 | CN1CCN(C(=O)Cn2cc(Nc3nc4c(N5CC6CCC(C5)N6C(=O)C5CCSC5)cccn4n3)cn2)CC1 (centres unmarked) [Example 50, 1-(4-methylpiperazin-1-yl)-2-[4-[[8-[8-(tetrahydrothiophene-3-carbonyl)-3,8-diazabicyclo[3.2.1]octan-3-yl]-[1,2,4]triazolo[1,5-a]pyridin-2-yl]amino]pyrazol-1-yl]ethanone] | 8.92 | 8.82
2 | CN1CCN(C(=O)Cn2cc(Nc3nc4c(N5CC6CCC(C5)N6C(=O)C5CCC(F)(F)CC5)cccn4n3)cn2)CC1 [Example 51, 2-[4-[[8-[8-(4,4-difluorocyclohexanecarbonyl)-3,8-diazabicyclo[3.2.1]octan-3-yl]-[1,2,4]triazolo[1,5-a]pyridin-2-yl]amino]pyrazol-1-yl]-1-(4-methylpiperazin-1-yl)ethanone] | 8.70 | 8.32
3 | CN1CCN(C(=O)Cn2cc(Nc3nc4c(N5CC6CCC(C5)N6C(=O)C5CCSCC5)cccn4n3)cn2)CC1 [Example 52, 1-(4-methylpiperazin-1-yl)-2-[4-[[8-[8-(tetrahydrothiopyran-4-carbonyl)-3,8-diazabicyclo[3.2.1]octan-3-yl]-[1,2,4]triazolo[1,5-a]pyridin-2-yl]amino]pyrazol-1-yl]ethanone] | 8.51 | 8.28
4 | CN1CCN(C(=O)Cn2cc(Nc3nc4c(N5CC6CCC(C5)N6C(=O)C5CC6CCC5O6)cccn4n3)cn2)CC1 (centres unmarked) [Example 53, 1-(4-methylpiperazin-1-yl)-2-[4-[[8-[8-(7-oxabicyclo[2.2.1]heptane-3-carbonyl)-3,8-diazabicyclo[3.2.1]octan-3-yl]-[1,2,4]triazolo[1,5-a]pyridin-2-yl]amino]pyrazol-1-yl]ethanone] | 8.72 | 8.55
5 | CN1CCN(C(=O)Cn2cc(Nc3nc4c(N5CC6CCC(C5)N6C(=O)COC(F)(F)F)cccn4n3)cn2)CC1 [Example 54, 1-(4-methylpiperazin-1-yl)-2-[4-[[8-[8-[2-(trifluoromethoxy)acetyl]-3,8-diazabicyclo[3.2.1]octan-3-yl]-[1,2,4]triazolo[1,5-a]pyridin-2-yl]amino]pyrazol-1-yl]ethanone] | 8.80 | 8.31
6 | CN1CCN(C(=O)Cn2cc(Nc3nc4c(N5CC6CCC(C5)N6Cc5cccc(C#N)c5)cccn4n3)cn2)CC1 [Example 55, 3-[[3-[2-[[1-[2-(4-methylpiperazin-1-yl)-2-oxo-ethyl]pyrazol-4-yl]amino]-[1,2,4]triazolo[1,5-a]pyridin-8-yl]-3,8-diazabicyclo[3.2.1]octan-8-yl]methyl]benzonitrile] | 8.72 | 8.40
7 | CN1CCN(C(=O)Cn2cc(Nc3nc4c(N5CC6CCC(C5)N6Cc5ccc(C#N)cc5)cccn4n3)cn2)CC1 [Example 56, 4-[[3-[2-[[1-[2-(4-methylpiperazin-1-yl)-2-oxo-ethyl]pyrazol-4-yl]amino]-[1,2,4]triazolo[1,5-a]pyridin-8-yl]-3,8-diazabicyclo[3.2.1]octan-8-yl]methyl]benzonitrile] | 8.85 | 8.29
8 | CN1CCN(C(=O)Cn2cc(Nc3nc4c(N5CC6CCC(C5)N6C(=O)C5CCC(F)(F)C5)cccn4n3)cn2)CC1 (centres unmarked) [Example 58, 2-[4-[[8-[8-(3,3-difluorocyclopentanecarbonyl)-3,8-diazabicyclo[3.2.1]octan-3-yl]-[1,2,4]triazolo[1,5-a]pyridin-2-yl]amino]pyrazol-1-yl]-1-(4-methylpiperazin-1-yl)ethanone] | 8.80 | 8.60
9 | CCN1CCN(C(=O)Cn2cc(Nc3nc4c(N5CC6CCC(C5)N6C(=O)N5CC(C(F)(F)F)C5)cccn4n3)cn2)CC1 [Example 59, 1-(4-ethylpiperazin-1-yl)-2-[4-[[8-[8-[3-(trifluoromethyl)azetidine-1-carbonyl]-3,8-diazabicyclo[3.2.1]octan-3-yl]-[1,2,4]triazolo[1,5-a]pyridin-2-yl]amino]pyrazol-1-yl]ethanone] | 9.10 | 9.30
10 | CN1CCN(C(=O)Cn2cc(Nc3nc4c(N5CC6CCC(C5)N6S(=O)(=O)CCC(F)(F)F)cccn4n3)cn2)CC1 [Example 60, 1-(4-methylpiperazin-1-yl)-2-[4-[[8-[8-(3,3,3-trifluoropropylsulfonyl)-3,8-diazabicyclo[3.2.1]octan-3-yl]-[1,2,4]triazolo[1,5-a]pyridin-2-yl]amino]pyrazol-1-yl]ethanone] | 9.15 | 8.82
11 | CN1CCN(C(=O)Cn2cc(Nc3nc4c(N5CC6CCC(C5)N6S(=O)(=O)c5ccccc5)cccn4n3)cn2)CC1 [Example 61, 2-[4-[[8-[8-(benzenesulfonyl)-3,8-diazabicyclo[3.2.1]octan-3-yl]-[1,2,4]triazolo[1,5-a]pyridin-2-yl]amino]pyrazol-1-yl]-1-(4-methylpiperazin-1-yl)ethanone] | 9.22 | 9.00
12 | CN(C1CCN(C(=O)Cn2cc(Nc3nc4c(N5CC6CCC(C5)N6C(=O)N5CC(C(F)(F)F)C5)cccn4n3)cn2)CC1)C1COC1 [Example 62, 1-[4-[methyl(oxetan-3-yl)amino]piperidin-1-yl]-2-(4-[[8-(8-[[3-(trifluoromethyl)azetidin-1-yl]carbonyl]-3,8-diazabicyclo[3.2.1]octan-3-yl)-[1,2,4]triazolo[1,5-a]pyridin-2-yl]amino]-1H-pyrazol-1-yl)ethan-1-one] | 9.15 | 9.30
13 | CN1CCN(C(=O)Cn2cc(Nc3nc4c(N5CC6CCC(C5)N6Cc5ccccc5C#N)cccn4n3)cn2)CC1 [Example 63, 2-[[3-[2-[[1-[2-(4-methylpiperazin-1-yl)-2-oxo-ethyl]pyrazol-4-yl]amino]-[1,2,4]triazolo[1,5-a]pyridin-8-yl]-3,8-diazabicyclo[3.2.1]octan-8-yl]methyl]benzonitrile] | 8.74 | 8.62
14 | CN1CCN(C(=O)Cn2cc(Nc3nc4c(N5CC6CCC(C5)N6C(=O)Cc5ccccc5F)cccn4n3)cn2)CC1 [Example 64, 2-(2-fluorophenyl)-1-[3-[2-[[1-[2-(4-methylpiperazin-1-yl)-2-oxo-ethyl]pyrazol-4-yl]amino]-[1,2,4]triazolo[1,5-a]pyridin-8-yl]-3,8-diazabicyclo[3.2.1]octan-8-yl]ethanone] | 8.72 | 8.14
15 | CN1CCN(C(=O)Cn2cc(Nc3nc4c(N5CC6CCCC(C5)N6C(=O)[C@H]5C[C@@H](C(F)(F)F)C5)cccn4n3)cn2)CC1 [Example 65, 1-(4-methylpiperazin-1-yl)-2-[4-[[8-[9-[3-(trifluoromethyl)cyclobutanecarbonyl]-3,9-diazabicyclo[3.3.1]nonan-3-yl]-[1,2,4]triazolo[1,5-a]pyridin-2-yl]amino]pyrazol-1-yl]ethanone] | 9.22 | 9.10
16 | CN1CCN(C(=O)Cn2cc(Nc3nc4c(N5CC6CCC(C5)N6C(=O)Cc5ccc(F)cc5)cccn4n3)cn2)CC1 [Example 66, 2-(4-fluorophenyl)-1-[3-[2-[[1-[2-(4-methylpiperazin-1-yl)-2-oxo-ethyl]pyrazol-4-yl]amino]-[1,2,4]triazolo[1,5-a]pyridin-8-yl]-3,8-diazabicyclo[3.2.1]octan-8-yl]ethanone] | 9.15 | 8.85
17 | CC(CC(=O)N1C2CCC1CN(c1cccn3nc(Nc4cnn(CC(=O)N5CCN(C)CC5)c4)nc13)C2)C(F)(F)F (centres unmarked) [Example 67, 4,4,4-trifluoro-3-methyl-1-[3-[2-[[1-[2-(4-methylpiperazin-1-yl)-2-oxo-ethyl]pyrazol-4-yl]amino]-[1,2,4]triazolo[1,5-a]pyridin-8-yl]-3,8-diazabicyclo[3.2.1]octan-8-yl]butan-1-one] | 9.10 | 8.85
18 | CN1CCN(C(=O)Cn2cc(Nc3nc4c(N5CC6CCC(C5)N6C(=O)c5cccc(CC#N)c5)cccn4n3)cn2)CC1 [Example 69, 2-[3-[3-[2-[[1-[2-(4-methylpiperazin-1-yl)-2-oxo-ethyl]pyrazol-4-yl]amino]-[1,2,4]triazolo[1,5-a]pyridin-8-yl]-3,8-diazabicyclo[3.2.1]octane-8-carbonyl]phenyl] acetonitrile] | 8.64 | 8.03
19 | CN1CCN(C(=O)Cn2cc(Nc3nc4c(N5CC6CCC(C5)N6C(=O)C(C)(C)CC(F)(F)F)cccn4n3)cn2)CC1 [Example 71, 4,4,4-trifluoro-2,2-dimethyl-1-[3-[2-[[1-[2-(4-methylpiperazin-1-yl)-2-oxo-ethyl]pyrazol-4-yl]amino]-[1,2,4]triazolo[1,5-a]pyridin-8-yl]-3,8-diazabicyclo[3.2.1]octan-8-yl]butan-1-one] | 8.74 | 8.74
20 | O=C(Cn1cc(Nc2nc3c(N4CC5CCC(C4)N5C(=O)CCC(F)(F)F)cccn3n2)cn1)N1CCC(N2CCOCC2)CC1 [Example 74, 4,4,4-trifluoro-1-[3-[2-[[1-[2-(4-morpholino-1-piperidyl)-2-oxo-ethyl]pyrazol-4-yl]amino]-[1,2,4]triazolo[1,5-a]pyridin-8-yl]-3,8-diazabicyclo[3.2.1]octan-8-yl]butan-1-one] | 9.00 | 8.57
21 | CN(C)C(=O)CN1CCN(CC2CCN(C(=O)Cn3cc(Nc4nc5c(N6CC7CCC(C6)N7C(=O)CCC(F)(F)F)cccn5n4)cn3)CC2)CC1 [Example 75, N,N-dimethyl-2-[4-[[1-[2-[4-[[8-[8-(4,4,4-trifluorobutanoyl)-3,8-diazabicyclo[3.2.1]octan-3-yl]-[1,2,4]triazolo[1,5-a]pyridin-2-yl]amino]pyrazol-1-yl]acetyl]-4-piperidyl]methyl]piperazin-1-yl]acetamide] | 8.85 | 8.41
22 | CN1CCN(C(=O)Cn2cc(Nc3nc4c(N5CC6CCC(C5)N6C(=O)c5cccs5)cccn4n3)cn2)CC1 [Example 76, 1-(4-methylpiperazin-1-yl)-2-[4-[[8-[8-(thiophene-2-carbonyl)-3,8-diazabicyclo[3.2.1]octan-3-yl]-[1,2,4]triazolo[1,5-a]pyridin-2-yl]amino]pyrazol-1-yl]ethanone] | 9.10 | 8.89
